Experimental data published in US5464616A, “6β-substituted penicillanic acids as beta-lactamase inhibitors” (Synphar Laboratories, Ind., priority 1994, dated 1995).

How the values were obtained:
Gram-negative bacteria = experiment: whole cell bacteria: antibacterial activity of the inhibitors alone and synergy with cephalothin; format: cell-based; settings: for synergistic activity against Gram-negative bacteria: in combination with cephalothin, whole cell bacteria; for antibacterial activity of the inhibitors themselves: inhibitor alone
[1] = target: T1, cephalosporinase, which was isolated from Enterobacter cloacae (Enterobacter cloacae, UniProt P05364); experiment: inhibition of representative cephalosporinase isolated from Enterobacter cloacae; format: biochemical; settings: read-out: IC50 against representative cephalosporinase
T1 construct: which was isolated from Enterobacter cloacae; endogenous in cells; host or cells: Enterobacter cloacae
Description: […]. Because of such differences in IC50 value against different types of β-lactamases, these inhibitors are regarded as selective cephalosporinase-inhibitors at the low concentration.

bacteria = settings: in combination with amoxycillin, ampicillin, piperacillin, respectively; cited from earlier work
[2] = test system: class C cephalosporinases; settings: chromosomally encoded inducible cephalosporinases; cited from earlier work
C. freundii S40 = experiment: MIC of cephalothin alone and in combination with inhibitor, C. freundii S40 (microbroth dilution); format: cell-based; settings: Citrobacter freundii, cephalothin alone, MHB, 5 × 10^5 cfu/ml, 16 h/35° C.
Procedure: (§1) MIC values of cephalothin in combination with
(§2) β-lactamase inhibitors Ia and Ic.
(§3) Microbroth Dilution Method, MHB; Inoculum, 5 × 10^5 cfu/ml;
(§4) Incubation, 16 h/35° C.;
(§5) *Concentration of inhibitor = 5 mg/ml (fixed).

E. aerogenes S95 = experiment: MIC of cephalothin alone and in combination with inhibitor, E. aerogenes S95 (microbroth dilution); format: cell-based; settings: Klebsiella aerogenes, cephalothin alone, MHB, 5 × 10^5 cfu/ml, 16 h/35° C.
Procedure: as §1, §2, §3, §4, §5

T1 sequence (P05364 21-381): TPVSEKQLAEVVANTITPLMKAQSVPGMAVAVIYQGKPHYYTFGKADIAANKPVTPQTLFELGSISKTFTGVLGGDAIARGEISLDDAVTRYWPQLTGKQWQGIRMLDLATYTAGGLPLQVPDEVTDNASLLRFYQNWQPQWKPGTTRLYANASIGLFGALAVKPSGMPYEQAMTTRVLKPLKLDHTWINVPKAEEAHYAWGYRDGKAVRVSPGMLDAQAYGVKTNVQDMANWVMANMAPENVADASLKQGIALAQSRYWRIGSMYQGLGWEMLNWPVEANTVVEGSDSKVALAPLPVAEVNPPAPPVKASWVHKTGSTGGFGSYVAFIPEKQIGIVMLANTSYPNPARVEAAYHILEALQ

| SMILES | IC50 [1] [nM] | enhancement of effectiveness of conventional antibiotics (bacteria) | protection of antibiotics from class C cephalosporinases [2] | also measured |
| --- | --- | --- | --- | --- |
| CC1(C)S[C@@H]2[C@H](NC(=O)C(C(=O)O)=C3SCCS3)C(=O)N2[C@H]1C(=O)O [Ic, Disodium 6β-[carboxylato(1,3-dithiolan-2-ylidene)acetamido]-2,2-dimethylpenam-3-carboxylate] | 9.1 | – | – | synergistic activity against Gram-negative bacteria (Gram-negative bacteria): synergistic activity; antibacterial activity of the inhibitors themselves (Gram-negative bacteria): no antibacterial activity at the concentration up to 128 mg/ml |
| CCOC(=O)C(C(=O)N[C@@H]1C(=O)N2[C@@H]1SC(C)(C)[C@@H]2C(=O)O)=C1SCCS1 [Ib, 6β-[(1,3-Dithiolan-2-ylidene)(ethoxycarbonyl)acetamido]-2,2-dimethylpenam-3-carboxylic acid] | 0.49 | – | – | – |
| C[C@]1(Cn2ccnn2)[C@H](C(=O)O)N2C(=O)C[C@H]2S1(=O)=O [tazobactam] | – | proved to enhance the effectiveness of conventional antibiotics against many bacteria | failed to protect the antibiotics | – |
| CC1(C)[C@H](C(=O)O)N2C(=O)C[C@H]2S1(=O)=O [sulbactam] | – | proved to enhance the effectiveness of conventional antibiotics against many bacteria | failed to protect the antibiotics | – |
| C=CCOC(=O)C(C(=O)N[C@@H]1C(=O)N2[C@@H]1SC(C)(C)[C@@H]2C(=O)O)=C1SC=CS1 [IIa, 6β-[(Allyloxycarbonyl)(1,3-dithiolen-2-ylidene)acetamido]-2,2-dimethylpenam-3-carboxylic acid] | 7 | – | – | – |
| O=C(O)[C@H]1/C(=C/CO)O[C@@H]2CC(=O)N21 [clavulanic acid] | – | proved to enhance the effectiveness of conventional antibiotics against many bacteria | failed to protect the antibiotics | – |
| CC(=O)OCC1=C(C(=O)O)N2C(=O)[C@@H](NC(=O)Cc3cccs3)[C@H]2SC1 [Cephalothin] | – | – | – | MIC (C. freundii S40): 256 µg/mL; MIC (E. aerogenes S95): > 256 µg/mL |
| CCOC(=O)C(C(=O)N[C@@H]1C(=O)N2[C@@H](C(=O)O)C(C)(C)S(=O)(=O)[C@H]12)=C1SCCS1 [Id, 6β-[(1,3-Dithiolan-2-ylidene)(ethoxycarbonyl)acetamido]-2,2-dimethylpenam-3-carboxylic acid 1,1-dioxide] | 150 | – | – | – |
| COC(=O)C(C(=O)N[C@@H]1C(=O)N2[C@@H]1SC(C)(C)[C@@H]2C(=O)O)=C1SCCS1 [Ia, 6β-[(1,3-Dithiolan-2-ylidene)(methoxycarbonyl)acetamido]-2,2-dimethylpenam-3-carboxylic acid] | 0.61 | – | – | synergistic activity against Gram-negative bacteria (Gram-negative bacteria): synergistic activity; antibacterial activity of the inhibitors themselves (Gram-negative bacteria): no antibacterial activity at the concentration up to 128 mg/ml |
